This experiment has as its system human PBMC cytotoxicity, % cell control. The experiment in a line: PBMC viability reduction by test compounds – cell-based, human PBMC, set 3, cytotoxicity control for HIV-1 antiviral project, dose response (AID 504630).

As for `Cc1c2c(=O)n(-c3nc4ccccc4s3)nc-2cc(O)n1Cc1ccccc1`, the TC50 was 13.2 µM.
